Here are results for 1 compound from patent publication US20160091485A1, “MARKERS FOR EZH2 INHIBITORS” (THE BROAD INSTITUTE, INC., priority 2013, published 2016).

The test system of assay [1] is cancer cell lines with EZH2 gain-of-function mutations (MCS Cluster A). Kind of assay: Cell proliferation, cell lines sensitive by EZH2 genotype and MCS (cluster A). Format: cell-based. The following applies: FIG. 5; cells predicted to be sensitive by EZH2 genotyping and by MCS. How it is done:
(§1) B cell lymphoma cells were cultured using standard cell culture conditions. For example, lymphoma cells were cultured in RPMI-1640 (Invitrogen, cat #11875, Grand Island, N.Y.) supplemented with 15% FBS (Invitrogen, cat #10099-141, Grand Island, N.Y.) in humidified incubator at 37° C., 5% CO2. To assess the effect of EZH2 inhibitor on cell proliferation, exponentially growing cells were seeded at a density of 1×10^5 cells/ml in 12-well plate (Corning, cat #CLS3513 Tewksbury, Mass.). Compounds were added after cell seeding at the indicated final concentration, and viable cell number was determined every 3-4 days continuously during the course of experiment using Vi-CELL (Beckman Coulter, Brea, Calif.). On days of cell counting, fresh growth media and compound were replenished and cells split back to a density of 1×10^5 cells/ml. Total cell number and population doubling was then calculated.

The test system of assay [2] is cells carrying EZH2 gain of function mutation, not in cluster A (low levels of H3K27me3). Kind of assay: Cell proliferation, EZH2 gain of function cells not in cluster A. Format: cell-based. The following applies: FIG. 6, cells predicted sensitive by genotyping, insensitive by MCS. As for the experimental part:
as §1

For assay [3], the target named is wild type EZH2 (Homo sapiens, UniProt Q15910). The settings on record: SAM competitive; cited from earlier work.
wild type EZH2, sequence (Q15910 whole entry): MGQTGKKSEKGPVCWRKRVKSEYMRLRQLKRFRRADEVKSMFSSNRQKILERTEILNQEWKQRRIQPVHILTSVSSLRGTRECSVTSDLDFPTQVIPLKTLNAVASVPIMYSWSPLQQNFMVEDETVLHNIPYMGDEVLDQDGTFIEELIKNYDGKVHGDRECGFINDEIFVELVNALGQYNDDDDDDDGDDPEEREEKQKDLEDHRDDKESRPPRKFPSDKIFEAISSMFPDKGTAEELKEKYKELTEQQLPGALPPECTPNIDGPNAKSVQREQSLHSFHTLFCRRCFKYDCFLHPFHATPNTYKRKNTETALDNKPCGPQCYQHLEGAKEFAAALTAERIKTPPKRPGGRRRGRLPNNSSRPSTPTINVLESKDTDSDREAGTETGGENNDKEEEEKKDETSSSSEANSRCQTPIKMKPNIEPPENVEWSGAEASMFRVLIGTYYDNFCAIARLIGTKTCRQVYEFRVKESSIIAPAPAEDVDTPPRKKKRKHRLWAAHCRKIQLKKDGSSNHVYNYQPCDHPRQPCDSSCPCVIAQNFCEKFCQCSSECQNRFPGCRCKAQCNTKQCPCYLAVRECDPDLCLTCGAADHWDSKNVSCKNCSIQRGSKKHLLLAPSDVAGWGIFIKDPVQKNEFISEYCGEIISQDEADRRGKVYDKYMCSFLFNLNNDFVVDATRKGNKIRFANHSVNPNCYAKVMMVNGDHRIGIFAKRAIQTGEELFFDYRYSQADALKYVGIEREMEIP
wild type EZH2, sequence (O75530 whole entry partner): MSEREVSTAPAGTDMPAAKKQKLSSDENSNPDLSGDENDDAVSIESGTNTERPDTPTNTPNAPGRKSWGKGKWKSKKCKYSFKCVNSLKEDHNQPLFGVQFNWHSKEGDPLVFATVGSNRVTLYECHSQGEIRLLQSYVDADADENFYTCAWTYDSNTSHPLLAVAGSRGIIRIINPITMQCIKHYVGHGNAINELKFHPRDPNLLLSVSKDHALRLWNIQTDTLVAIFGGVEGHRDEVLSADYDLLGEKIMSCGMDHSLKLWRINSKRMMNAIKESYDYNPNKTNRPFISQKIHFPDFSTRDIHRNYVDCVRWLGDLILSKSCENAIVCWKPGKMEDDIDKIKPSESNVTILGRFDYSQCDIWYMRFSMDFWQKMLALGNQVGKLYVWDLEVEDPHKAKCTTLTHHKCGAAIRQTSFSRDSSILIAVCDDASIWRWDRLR
wild type EZH2, sequence (Q15022 whole entry partner): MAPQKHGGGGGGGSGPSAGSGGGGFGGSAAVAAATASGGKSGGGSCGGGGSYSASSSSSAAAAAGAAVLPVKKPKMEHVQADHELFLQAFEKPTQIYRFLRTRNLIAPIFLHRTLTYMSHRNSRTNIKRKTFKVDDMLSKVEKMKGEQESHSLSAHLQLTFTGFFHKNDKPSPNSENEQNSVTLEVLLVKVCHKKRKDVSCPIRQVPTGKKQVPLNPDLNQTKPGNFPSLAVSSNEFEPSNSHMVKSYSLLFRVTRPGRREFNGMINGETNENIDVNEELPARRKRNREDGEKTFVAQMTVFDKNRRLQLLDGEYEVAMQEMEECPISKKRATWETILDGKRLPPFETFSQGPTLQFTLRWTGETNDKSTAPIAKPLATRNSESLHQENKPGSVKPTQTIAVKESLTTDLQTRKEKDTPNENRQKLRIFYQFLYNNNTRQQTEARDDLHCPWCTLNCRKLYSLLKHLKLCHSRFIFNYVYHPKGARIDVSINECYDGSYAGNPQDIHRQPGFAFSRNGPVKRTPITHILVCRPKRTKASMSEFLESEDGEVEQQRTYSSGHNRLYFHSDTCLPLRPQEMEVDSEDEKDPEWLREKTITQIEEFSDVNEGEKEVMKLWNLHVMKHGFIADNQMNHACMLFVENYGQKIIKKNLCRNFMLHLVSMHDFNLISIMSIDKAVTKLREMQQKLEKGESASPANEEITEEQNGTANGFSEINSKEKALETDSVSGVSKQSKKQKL
The target in assay [4] is Y641F EZH2 (Homo sapiens, UniProt Q15910, Y641F). The following applies: SAM competitive; cited from earlier work.
Y641F EZH2, sequence (Q15910 whole entry Y641F): as the sequence (Q15910 whole entry) above, with Y641F counted along it
Y641F EZH2, sequence (O75530 whole entry partner): as the sequence (O75530 whole entry partner) above
Y641F EZH2, sequence (Q15022 whole entry partner): as the sequence (Q15022 whole entry partner) above

By IC50 is commonly meant the point on the concentration scale where inhibition reaches its midpoint. With `CCC(CC)n1ccc2c(C(=O)NCc3c(C)cc(C)[nH]c3=O)cc(C#N)cc21` [EI1, 6-cyano-N-((4,6-dimethyl-2-oxo-1,2-dihydropyridin-3-yl)methyl)-1-(pentan-3-yl)-1H-indole-4-carboxamide], the “sensitivity of cells to EZH2 inhibitor (cell proliferation)” value in assay [1] is reported as “sensitive”; in assay [2] it was “insensitive”. The figures for the IC50 in assay [3] and in assay [4] were 0.0094 µM and 0.0132 µM, respectively.
